The assay relates to Tyrosinase (Agaricus bisporus). The assay can be described thus: Inhibitory activity at a concentration of 0.5 nm, was evaluated against the oxidation of L-3,4-dihydroxyphenylalanine (L-DOPA) catalyzed by mushroom tyrosinase; No inhibitory activity.

With `COc1cc(C(C)C)ccc1C=O`, the IC50 entry is “No inhibition”.

(Values after ChEMBL document CHEMBL1147427, “2-hydroxy-4-isopropylbenzaldehyde, a potent partial tyrosinase inhibitor” (Bioorg Med Chem Lett, 2004).)
